One molecule from US10093699B2, “Peptides with antimicrobial, anticancer and/or wound-healing promoting activities, pharmaceutical compositions containing the same, and use of the peptides with antimicrobial, anticancer and/or wound-healing promoting activities” (priority 2015, dated 2018) can be followed below.

Where a SMILES comes first, the peptide text is derived from it. [ ]: non-standard residue; d: D form. 2Nal = N[C@@H](Cc1ccc2ccccc2c1)C(=O)O

The subject of assay [1] is PC9 human lung cancer cells. The assay is classed as in vivo, male nude mice. The protocol: 12 male nude mice (BALB/cAnN.Cg-Foxn1nu/CrlNarl) were purchased from National Laboratory Animal Center, Taiwan.
100 μl human lung cancer cell PC9 (3×10^6 cells) in Matrigel (Corning) was injected subcutaneously into the dorsal side of 5-week-old male nude mice. Each mouse was inoculated two sites on its back (Taguchi F, Koh Y, Koizumi F, Tamura T, Saijo N, et al. (2004) Anticancer effects of ZD6474, a VEGF receptor tyrosine kinase inhibitor, in gefitinib (“Iressa”)-sensitive and resistant xenograft models. Cancer Sci 95: 984-989.). 1 week 5 days after implantation (cancer size>95 mm^3), 12 mice were allocated randomly into two group. One group was received K4R2Nal2S1 (5 mg/Kg, dissolving in 100 μl PBS buffer) by tail vein injection three times a week, the other group was injected PBS as control.
Body weight and cancer size were measured three times a week. The cancer volume was calculated by formula of width^2×length×0.52. The cancer volume below 100% of the pretreatment volume was defined as “cancer reduction” (Taguchi F, Koh Y, Koizumi F, Tamura T, Saijo N, et al. (2004) Anticancer effects of ZD6474, a VEGF receptor tyrosine kinase inhibitor, in gefitinib (“Iressa”)-sensitive and resistant xenograft models. Cancer Sci 95: 984-989.). “Cancer reduction” was confirmed when the mice were dissected.
The mice were sacrificed after treatment of 40 days, the cancers were removed, photographed, and weighed. All animal experiments were performed in accordance with the animal guidelines of the National Tsing Hua University Institutional Animal Care and approved by Animal Care Committee.
Solid cancers were fixed in 4% formaldehyde buffer. Paraffin-embedded tissues were cut to 2 μm-thickness sections, and deparaffinized in ultraclear buffer (J.T. Baker) and graded ethanol. The morphology of cancers was obtained by Hematoxylin and eosin (H&E) stained sections. In addition, the sections were immunostained with anti-cleaved-PARP (1:100) antibody (Cell Signaling, clone number: D65E10).
Tissue images were captured using light microscope (Eclipse E400, Nikon) with digital microscopy camera (AxioCam ICc 5, ZEISS), at 40×, 200× and 400× fields.
To evaluate the anticancer effect of K4R2Nal2-S1 peptide in vivo, PC9 cells were implanted subcutaneously to nude mice (see FIG. 7A) and followed by K4R2-Nal2-S1 injection via the intravenous route, at a dose of 5 mg/kg, three times weekly (FIGS. 7B and 7C).
To examine the involvement of necrosis and apoptosis in K4R2Nal2-S1 peptide mediated anticancer effect, lung tumors generated in the xenograft mouse model were excised and analyzed by Hematoxylin and eosin (H&E) staining and immunohistochemistry for cleaved PARP, a marker for cell apoptosis.

A further assay deals with HFW cells. Description: Cell live image (phase-contrast and immunofluorescence), HFW. The format is cell-based, human. The note with it: 12 μM, 5 minutes. Here is the method:
PC9 and HFW cells (˜10^5 cells) were pre-seeded in 6-cm polystyrene dishes for 24 hours. Cell nuclear is labeled by 4′,6-diamidino-2-phenylindole (DAPI) with a final concentration of 10 μg/ml. After 10 minutes of incubation, the cells were washed by PBS. FITC-K4R2Nal2S1-NH2 was added to the dishes with the final concentration of 12 μM. After incubation for 5, 10, 20 minutes or 1 hour at 37° C., the cells were washed with PBS. The images of FITC-K4R2Nal2S1-NH2 in PC9 cells and HFW cells were observed using the Inverted Fluorescent Microscope Zeiss/Observer.Z1.
To investigate the mode of actions of K4R2Nal2-S1 peptide on human cancer cell line (PC9) and human fibroblast (HFW), cells were treated with FITC-labeled K4R2-Nal2-S1. Nucleus was labeled with DAPI, and the blue signal was observed by UV exciting light. The fluorescence distribution of FITC-labeled K4R2-Nal2-S1 peptide on cell membrane was visualized by the inverted fluorescent microscope.

For a further assay, the system named is HaCaT cells. Put plainly: Cell migration assay (in vitro wound healing assay). The format is cell-based. To be noted: different concentrations of peptide; 12 and 24 h. The protocol:
HaCaT cells (40,000) suspended in DMEM medium supplemented with 10% fetal bovine serum were seeded on each side of an ibidi culture insert (ibidi, Germany). Inserts were placed into 24-well plate. After incubated at 37° C. and 5% CO2 overnight, inserts were removed and 1 ml of serum-free DMEM medium supplemented with different concentrations of peptide was added. Medium without peptide and with 100 ng/ml EGF (epidermal growth factor) were negative and positive controls. At 0, 12 and 24 h, the images of injury area were observed using the Inverted Fluorescent Microscope Zeiss/Observer.Z1 (10×). Wound area was estimated by Adobe Photoshop. The repairing rate was calculated: repairing rate=(areat0−areat12,24)/areat0, wherein t represents time.

In a further assay the test system is caspase 3 in HFW cells. Put plainly: Western blot for activated caspase 3, HFW. The assay is classed as cell-based, human. Background: In western blotting, separated proteins are transferred to a membrane and probed.
Setting [2] is: 5 mg/kg i.v., three times weekly, harvested 40 days after injection.

In the case of `CC(=O)N[C@@H](CCCCN)C(=O)N[C@@H](CCCCN)C(=O)N[C@@H](CCCCN)C(=O)N[C@@H](CCCCN)C(=O)N[C@@H](CCCNC(=N)N)C(=O)N[C@@H](CCCNC(=N)N)C(=O)N[C@@H](Cc1ccc2ccccc2c1)C(=O)N[C@@H](Cc1ccc2ccccc2c1)C(=O)N[C@@H](CCCCN)C(=O)N[C@@H](CCCCN)C(=O)N[C@@H](Cc1c[nH]c2ccccc12)C(=O)N[C@@H](CCCNC(=N)N)C(=O)N[C@@H](CCCCN)C(=O)N[C@@H](Cc1c[nH]c2ccccc12)C(=O)N[C@@H](CC(C)C)C(=O)N[C@@H](C)C(=O)N[C@@H](CCCCN)C(=O)N[C@@H](CCCCN)C(N)=O` [K4R2-Nal2-S1, Ac-KKKKRR-Nal-Nal-KKWRKWLAKK-NH2] (Ac-KKKKRR[2Nal][2Nal]KKWRKWLAKK-NH2), the tumor growth result in assay [1] (5 mg/kg i.v., three times weekly) is “significant inhibition”. For the same molecule, in assay [1] (setting [2]), the “volume of tumors harvested” value is “decreased” and the “weight of tumors harvested” value is recorded as “decreased”. For the same molecule, the “number of exposed tumors” value in assay [1] (46th day after implantation, 6 mice×2 side implantation, 12 in the PBS group) amounted to 7. For the same molecule, the “necrosis in tumors (H&E staining)” value in assay [1] (excised xenograft tumors) is given as “large scale of necrosis regions”. In addition, the “cleaved PARP expression (immunohistochemistry)” value in assay [1] (excised xenograft tumors, next to the necrosis regions) is recorded as “increased expression of cleaved PARP”. Moreover, in the assay with HFW cells, the “cellular swelling (phase-contrast microscopy)” value was “not in HFW cells”. For the same molecule, the “wound healing (repairing rate) compared to negative control” value with HaCaT cells is listed as “better effects of wound healing”. Further, the “caspase 3 activation (immunoblotting)” value with caspase 3 in HFW cells was “not in HFW cells”.
